Ki and Km data for four molecules are collected here from article PMC4643977, “Negative Feedbacks by Isoprenoids on a Mevalonate Kinase Expressed in the Corpora Allata of Mosquitoes” (PLoS ONE, 2015).

Data set [1] addresses T1, Aedes aegypti mevalonate kinase (AaMVK) (Aedes aegypti, UniProt Q176C1).
T1 construct: gene 5567998; recombinant His-tagged full-length AaMVK (397 aa) expressed in E. coli
T1 sequence (Q176C1 1-397): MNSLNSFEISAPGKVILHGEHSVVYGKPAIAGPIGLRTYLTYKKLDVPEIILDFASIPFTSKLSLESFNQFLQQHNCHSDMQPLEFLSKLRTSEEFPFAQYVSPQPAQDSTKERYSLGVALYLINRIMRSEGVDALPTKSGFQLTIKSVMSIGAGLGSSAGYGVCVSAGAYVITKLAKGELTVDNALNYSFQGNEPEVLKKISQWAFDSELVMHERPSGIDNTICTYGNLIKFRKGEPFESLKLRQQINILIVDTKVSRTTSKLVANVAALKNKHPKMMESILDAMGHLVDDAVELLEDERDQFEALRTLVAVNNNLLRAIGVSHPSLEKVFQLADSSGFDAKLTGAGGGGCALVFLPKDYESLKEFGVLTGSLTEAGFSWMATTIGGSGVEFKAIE
The experiment in a line: PK/LDH-coupled spectrophotometric kinase assay, Ki from varied ATP and inhibitor. The class given is biochemical.

Substrate in data set [2]: C[C@@](O)(CCO)CC(=O)O
Briefly: purified protein. The conditions noted are these: Mg2+.

Substrate in data set [3]: Nc1ncnc2c1ncn2[C@@H]1O[C@H](COP(=O)(O)OP(=O)(O)OP(=O)(O)O)[C@@H](O)[C@H]1O
The experiment in a line: Michaelis-Menten kinetics, PK/LDH-coupled assay (Km). The class given is biochemical, Aedes aegypti. Conditions: Mg2+.

In general, Ki refers to a measure of affinity in units of concentration, obtained from inhibition or displacement. A higher Ki goes with a looser hold on the target. Molecule `CC(C)=CCC/C(C)=C/COP(=O)(O)OP(=O)(O)O` [GPP, geranyl diphosphate] showed an inhibition constant Ki in data set [1] of 0.55 ± 0.28 µM. Same read-out and setting: next, `CC(C)=CCC/C(C)=C/CC/C(C)=C/CO[P@@](=O)(O)OP(=O)(O)O` (stereo in doubt) [FPP, farnesyl diphosphate]: 0.44 ± 0.2 µM; `CC(C)=CCC/C(C)=C/CC/C(C)=C/CC/C(C)=C/COP(=O)(O)OP(=O)(O)O` [GGPP, geranyl-geranyl pyrophosphate]: 0.93 ± 0.19 µM.

B1: Aedes aegypti mevalonate kinase (AaMVK) (Aedes aegypti) (protein)
chain: T1 sequence (Q176C1 1-397)
notes: recombinant His-tagged full-length AaMVK (397 aa) expressed in E. coli
In general, Km refers to the substrate concentration at which the rate is half of its maximum. As to B1, the Km stood at 90 ± 18 µM in data set [2] and 140 ± 28 µM in data set [3].
